One series concerns the target T1, p53/hDM2 interaction (Homo sapiens, UniProt Q00987).
T1 construct: Expression of hDM2_17–126 recombinant fragment was performed as described previously; made in house
Put plainly: Fluorescence anisotropy (FA) assay, displacement of p53_15–31Flu from hDM2_17–126. Type of series: binding. How it is done: To experimentally test the library of the organo-metallic iridium(III) compounds as p53/hDM2 PPI inhibitors, a fluorescence anisotropy (FA) assay was performed as previously described. hDM2_17–126 (recombinant fragment) was incubated with fluorescein-labelled p53 peptide (p53_15–31Flu) and serial dilutions of the organometallic iridium(III) compounds.
Figure 2 FA titration data of 1 1 was incubated with 150 nM hDM2_17–126 recombinant fragment and 50 nM fluorescein-labelled p53 peptide (p53_15–31Flu), and fluorescence anisotropy was measured at 480ex/535em.
Expression of hDM2_17–126 recombinant fragment was performed as described previously. Fluorescence anisotropy assays were used to study the displacement of p53 from hDM2 by organometallic compounds. The experiments were performed in triplicate in a volume of 60 μL of the assay buffer (40 mM Na3PO4, pH 7.50, 200 mM NaCl, 0.02 mg/mL BSA) in black flat-bottom 384-well plates. Different concentrations of organometallic compounds were diluted in the assay buffer containing 150 nM hDM2 and 50 nM p53_15–31Flu (Ac-[…](Flu)-NH2, Peptide Protein Research Ltd.) and incubated at room temperature for 30 min. The intensity and anisotropy was monitored at 480ex/535em ([…] bandwidth) using a Perkin Elmer EnvisionTM 2103 MultiLabel plate reader. The data was analyzed according to published methods.
Background: Polarisation of emitted light reports the rotation of a fluorescent probe.

For series [1], the system named is p53 and hDM2 protein expression levels. Put plainly: Immunoblotting of p53 and hDM2 protein expression in A375 cells. Type of series: cell-based, human. The settings on record: 6 h, up to the highest concentration of 1 μM. How it is done: To assess whether 1 suppressed p53 or hDM2 protein expression levels, resulting in a decrease in the levels of precipitated protein detected in the pull-down assay, an immunoblotting experiment was performed.
In general terms: In western blotting, separated proteins are transferred to a membrane and probed.

Another series has as its system GADD45α, PUMA, p21. The settings on record: A375 cells. The protocol: Transactivation of p53 restricts cellular proliferation by inducing apoptosis and cycle arrest. Therefore, a terminal deoxynucleotidyl transferase (TdT)-mediated dUTP nick and labelling (TUNEL) and Hoechst staining assay were then performed to investigate DNA fragmentation, a hallmark of apoptosis, in apoptotic cells. […] Finally, the effect of 1 on caspase-3/7, an apoptotic executioner under the control of p53, was investigated in A375 cells using a homogeneous luminescence assay.
A375 cells seeded in 6-well plates were treated with vehicle, NVP-CGM097 or different concentrations of 1 for 6 h. Cells were then harvested and the quantity of each protein samples was measured by the BCA method. Same aliquot (30 μg) of each protein sample was separated by SDS-PAGE according to the reported procedure of immunoblotting. The signals were visualized using Enhanced chemiluminescent Plus reagents (GE Healthcare) and analyzed by Image Lab. The primary antibodies used were: anti-PUMA (1:500, Santa Cruz), anti-GADD45α (1:500, Santa Cruz), anti-p21 (1:500, Santa Cruz), anti-GAPDH (1:500, Santa Cruz), anti-p53 (1:500, Santa Cruz) and anti-hDM2 antibodies (1:500, Santa Cruz).

For series [2] the following is noted: 298 K. The text has this: (1 picture or pasted object on this page, not shown here) […]

This is an account of results in paper PMC4924691, “Inhibition of the p53/hDM2 protein-protein interaction by cyclometallated iridium(III) compounds” (Oncotarget, 2016).

T1 sequence (Q00987 17-126): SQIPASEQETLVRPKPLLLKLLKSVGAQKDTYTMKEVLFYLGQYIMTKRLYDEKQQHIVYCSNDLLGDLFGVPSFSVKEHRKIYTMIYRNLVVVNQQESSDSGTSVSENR

Regarding `CCc1ccc2[c](c1)[Ir-3]13([c]4cc(CC)ccc4-c4cccc[n+]41)([n+]1ccccc1-2)[n+]1ccc(Cl)c2ccc4c(Cl)cc[n+]3c4c21.F[P-](F)(F)(F)(F)F` [Compound 1, 4,7-dichloro-1, 10-phenanthrolinebis(2-(4-ethylphenyl)pyridine)iridium(III) hexafluorophosphate], at p53/hDM2 interaction (150 nM hDM2_17–126, 50 nM p53_15–31Flu, 30 min, room temperature, read-out: IC50 against the p53/hDM2 interaction as determined by a FA assay), the IC50 was found to be 16 µM. Also, on p53/hDM2 interaction (serial dilutions of compound, hDM2_17–126 with p53_15–31Flu), the “effect on fluorescence anisotropy / p53/hDM2 interaction” value is given as “decreased significantly”. For the same molecule, the “effect on hDM2 and p53 protein expression levels” value in series [1] is “no effect”. Further, in the series with GADD45α, PUMA, p21, the “expression of GADD45α” value is listed as “significantly increased”, the “expression of PUMA” value was “significantly increased” and the “expression of p21” value is given as “induced”. Further, the “time stable in solution (UV-Vis)” value in series [2] (80% acetonitrile/20% Tris-HCl buffer, 20 μM) is “at least 7 days”. Besides, in series [2] (90% [d6] DMSO/10% D2O, 5 mM), the “time stable in solution (1H NMR)” value is given as “at least 7 days”.
